In US20240197760A1, “ACTIVATORS OF INTEGRATED STRESS RESPONSE PATHWAY FOR PROTECTION AGAINST FERROPTOSIS” (Burke Neurological Institute, priority 2021, published 2024):

Test system: 5×FAD mice
Experiment: Intracerebroventricular Alzet pump infusion in 5×FAD and wild type mice: Bdnf, LTP, Y-maze, Morris water maze
Format: in vivo, mouse
Description: All animal procedures were approved by the Weill Cornell Medicine Institutional Animal Care and Use Committee (Animal protocol: 2014-0029) and conducted in accordance with the NIH Guide for the Care and Use of Laboratory Animals and ARRIVE guidelines. We used C57/BL6 mice for the induction of ischemic stroke and hemorrhagic stroke. 8-10 weeks old female pregnant CD1 mice were used for primary neuronal culture. Ppp1R15b^flox/flox mice were obtained from Ann-Hwee Lee's group currently working at Regeneron and were bred at Burke Neurological Institute. The genotypes of Ppp1R15b^flox/flox mice were assessed with PCR using DNA isolated from clipped tails of mice. Twelve weeks old male Ppp1R15b^flox/flox mice were used for inactivation of R15b regulatory subunit of protein phosphatase 1 in the hippocampus through AAV8 GFP or Cre intracranial injection. In the current study, 5×FAD mouse was used as a model of AD as this model represents pathological characteristics seen in both genetic as well as sporadic forms of AD. 5×FAD mice (B6/SJL genetic background) was purchased from Jackson's laboratory and was maintained by breeding male heterozygous transgenic mice with wild type female mice. The 5×FAD mice express human APP and PSEN1 transgenes with a total of five AD-linked mutations: the Swedish (K670N/M671L), Florida (I716V), and London (V717I) mutations in APP, and the M146L and L286V mutations in PSEN1. In the current study, 6-7 months old 5×FAD mice were used for the Alzet mini osmotic pump implantation followed by memory assessment, LTP assessment, and gene expression studies.
Brains were quickly removed from mice sacrificed by cervical dislocation and placed in cold artificial cerebrospinal fluid (ACSF) (bubbled with 95% O2/5% CO2) containing (in mM): 124 NaCl, 4 KCl, 1 Na2HPO4, 25 NaHCO3, 2 CaCl2, 2 MgCl2, and 10 glucose. The pH and osmolarity of the solution were 7.4 and 310 mOsm/L, respectively. The hippocampus was isolated and placed on a mechanical tissue chopper to produce transverse hippocampal slices of 400 μm thickness. Slices were maintained in a humidified interface chamber at 29° C. and continuously perfused (˜1 mL/min) with 95% O2/5% CO2-bubbled ACSF. Hippocampal slices were allowed to recover for at least 90 min prior to beginning the experiment. For recordings, glass electrodes were filled with ACSF and positioned in the CA1 stratum radiatum to record fEPSPs evoked by local stimulation (0.1 ms) of Schaffer collateral fibers using a bipolar concentric electrode placed laterally to the recording electrode (˜150 μm). For LTP recordings, the voltage intensity of the stimulation test pulse (square pulse, 100 us duration) for each slice was determined to be the voltage intensity that had generated 30-40% of the maximum slope obtained using input-output relationships. Facilitation was calculated as the ratio of the slopes of the second and first fEPSPs, and plotted as a function of the inter-pulse duration. For LTP, a test pulse was applied every minute. Following a steady baseline of 15 min, potentiation was induced with either 100 Hz for 1 s (weak stimulation) or 3 theta-burst stimulations (TBS; 15 s interval), each one involving a single train of 10 bursts at 5 Hz, where each burst is composed of 4 pulses at 100 Hz (strong stimulation). The fEPSP slopes following tetanic stimulation were normalized to the average of the slopes of the fEPSPs acquired during the baseline. Residual potentiation was calculated as the average of the last 15 min of 2 h of recordings.
The sterile Alzet mini osmotic pumps (Durect, pump model 1004) were filled with 100 μl of either saline or 2-deoxyglucose (10 μg/μl) and were incubated in saline for 24 h to allow the osmotic release of the drug. Thereafter, the pumps were attached properly with the plastic tubing provided in the brain infusion kit 2 3-5 mm (Durect, catalog number 0008663). We made an intracerebroventricular groove stereotaxically in the mouse brain. […]

[1] = ICV Alzet pump, four weeks, wild type mice
[2] = ICV Alzet pump, four weeks, versus wild type mice treated with saline

## OC[C@H]1OC(O)C[C@@H](O)[C@@H]1O (stereo partly drawn) [2-DG, (4R,5S,6R)-6-(hydroxymethyl)oxane-2,4,5-triol]
[1]
  Bdnf gene expression in wild type mice: didn't lead to nootropic upregulation
  LTP in wild type mice: didn't lead to nootropic upregulation
  Morris water maze task in wild type mice: did not show any nootropic increase
  Y-maze task in wild type mice: did not show any nootropic increase
ICV Alzet pump, four weeks, 5×FAD (saline) vs 5×FAD (2-DG) p=0.0194
  LTP in hippocampal slices from 5×FAD mice: normalized
[2]
  Bdnf gene expression in 5×FAD mice: normalized
  spatial long-term memory in Morris water maze, 5×FAD mice: normalized these memories
  spatial short-term memory, spontaneous alternation test in Y-maze, 5×FAD mice: normalized these memories
Intracerebroventricular infusion at 1 g/Kg/day
  driving the adaptive plasticity program: sufficient in driving the adaptive plasticity program
